Test results published in patent publication US4110626A, “Method for improving the quality of the fragrance of perfumes using aliphatic dibasic acid diesters” (Shiseido Co., Ltd., priority 1976, dated 1978).

What was measured:
[1] = Fixing effect: HS-GC (II), analysis of volatilized portion after standing 15 minutes; format: physicochemical; details: for Analysis of Volatilized Portion after Standing 15 Minutes (HS-GC (II) Method): controlling agent 15%, model perfume 5%
Protocol: (§1) Then, the fixing effect was evaluated by a second head space gas chromatographic (II) method (HS-GC (II)). Specifically, a perfume containing 0.7 g of a perfume controlling agent was coated on a sheet of paper having a predetermined thickness, area (11.5 × 7.5 cm), and weight (about 2.9 g). The coated paper was allowed to stand for 15 minutes in an open space in a room (6 × 4 × 2.5 m) maintained at a humidity of 50% at a ventilation rate of 1,500 m^3 /hr. The paper was then transferred into a 1,000 ml Erlenmeyer flask, and the flask was tightly sealed. After a lapse of 15 minutes, the volatilized portion was collected and analyzed by gas chromatography under the conditions shown Table A above. Furthermore, the residue on the paper was extracted with acetone, and analyzed by gas chromatography using conditions shown in Table B below.
(§2) The composition of the model perfume used was as follows:
Model Perfume: 5% by weight
95% Ethanol: 95% by weight
The composition of the perfume containing a perfume controlling agent was as follows:
Perfume Controlling Agent: 15% by weight
95% Ethanol: 80% by weight

skin of a guinea pig = test: Cumulative irritation on the skin of a guinea pig; format: in vivo; details: 0.3 ml three times at 24 hour intervals, intact skin
Protocol: The cumulative irritation on the skin of a guinea pig was evaluated by coating 0.3 ml of a test agent on intact skin of the guinea pig and judging the skin reaction after a lapse of 24 hours, then coating the test agent in an amount of 0.3 ml on the same site twice, each at 24 hour intervals, and judging the reaction of the skin after a lapse of 72 hours (after coating three times).

skin of an albino rabbit = test: Primary irritation of the skin of an albino rabbit; format: in vivo; details: 0.3 ml, intact and abraded area, 24 hours
Protocol: The primary irritation of the skin of an albino rabbit was determined by adhering 0.3 ml of a test agent on a lint cloth patch, applying the cloth to an intact area and an abraded area of the skin of the back of the albino rabbit, and evaluating the skin reactions at these two areas after a lapse of 24 hours. Then, an overall evaluation was made.

[2] = Fixing effect: head space gas chromatographic (I) method (HS-GC (I)); format: physicochemical; details: 35° C, 60 minutes
Protocol: A model perfume formulation was prepared using eight typical perfumes having different chemical structures, and the fixing effect of a perfume controlling agent was evaluated.
The fixing effect of the perfume controlling agent was determined using a head space gas chromatographic (I) method (to be abbreviated hereinafter as HS-GC (I) method). Specifically, 0.5 g of a perfume containing the perfume controlling agent was placed in an Erlenmeyer flask, and after sealing, the flask was allowed to stand at 35° C for 60 minutes.
Column: 3% polyethylene glycol having a molecular weight of about 20,000 on diatomaceous earth (2m)
Column Temperature: -40° C (5 minutes, isothermal) flushed to 80° C and then to 200° C (4° C/min.)
Injector Temperature: 250° C
Detector Temperature: 250° C
(§3) Detector: Flame Ionization Detector
(§4) Carrier Gas: He (40 ml/min.)

[3] = Stabilizing effect on octanal (APHA color); format: physicochemical; details: 37° C, 1 month; original APHA 15; 50% controlling agent added or octanal alone
Protocol: Octanal was selected as a single perfume, and the stabilizing effect of the perfume controlling agent was determined.
Amount of Perfume Controlling Agent: 50% based on the octanal (in the case of both DIBA and DIAA)
Test Temperature and Period: 37° C, one month (checked every week)
Items Evaluated: Acid value (AV), carbonyl value (COV), APHA color
In the test, a 100 ml brown bottle boiled in water for 12 hours was used, and the head space of the bottle was purged with nitrogen gas after the octanal had been introduced into the bottle.
Specifically, the color of a solution obtained by diluting 1 ml of a standard original color liquid (octanal) with water exactly to a volume of 100 ml is taken as APHA No. 5, and the APHA color number is increased by a multiple of 5 (as 10, 15, 20 . . . ) for every 1 ml increase of the original liquid.

[4] = Fixing effect: analysis of residue on paper after standing 15 minutes; format: physicochemical
Protocol: as §1
Column: 5% FFAP (free fatty acid polyester; a trade name for a product of Nippon Chromato Co., Ltd.) on diatomaceous earth (2m)
Column Temperature: 80° C (5 minutes, isothermal) to 220° C (4° C/min.)
Injector Temperature: 260° C
Detector Temperature: 260° C
as §3, §4, §2
The values shown in Table 5 above were obtained by calculating the areas of the perfumes while the area of musk ketone measured by gas chromatography was taken as 1. (This calculating procedure was adopted because musk ketone has a high boiling point, and scarcely volatilizes at 30° C.)

[5] = Acute oral toxicity (LD50)
Pseudomonas aeruginosa = test: Microorganism assimilation; details: for OD (turbidity): 660 nm
Protocol: 100 ml of the above liquid medium was placed in a 500 ml Sakaguchi flask, and sterilized at 120° C for 15 minutes in an autoclave in a customary manner. After cooling, the culture medium was inoculated with a prescribed amount of a suspension of the pre-cultured microorganism and cultivated at 30° C with shaking 120 times per minute.
Changes with time in the pH, turbidity, number of living cells were determined.
The turbidity was determined as follows: 2 ml of the culture broth was collected, and the precipitate was separated with a centrifugal separator. The precipitate was washed with acetone, and suspended in 2 ml of distilled water. The turbidity (OD) of the suspension at 660 nm was measured.

CC(C)COC(=O)CCCCC(=O)OCC(C)C [DIBA, diisobutyl adipate]
Analysis of Volatilized Portion after Standing 15 Minutes (HS-GC (II) Method) ([1]; Citral (not present: 3.5%)): 1.3% | Analysis of Volatilized Portion after Standing 15 Minutes (HS-GC (II) Method) ([1]; Limonene (not present: 2.6%)): 45.9% | Analysis of Volatilized Portion after Standing 15 Minutes (HS-GC (II) Method) ([1]; Linalool (not present: 45.2%)): 29.7% | Analysis of Volatilized Portion after Standing 15 Minutes (HS-GC (II) Method) ([1]; Linalyl Acetate (not present: 39.0%)): 16.4% | Analysis of Volatilized Portion after Standing 15 Minutes (HS-GC (II) Method) ([1]; Musk ketone (not present: 0.0%)): 0.0% | Analysis of Volatilized Portion after Standing 15 Minutes (HS-GC (II) Method) ([1]; Pinene (not present: 0.2%)): 2.4% | Volatility and fixing ability ([1]; conclusion from Tables 3, 4 and 5): balanced volatility and fixing ability like DEP and BB | Cumulative irritation on the skin (skin of a guinea pig): did not exhibit irritating effects | Primary irritation of the skin (skin of an albino rabbit): did not exhibit irritating effects | Head Space Analysis of the Perfume after Adding 50% of DIBA ([2]; Benzyl Acetate, content 11.0% (alone 12.5%)): 12.6% | Head Space Analysis of the Perfume after Adding 50% of DIBA ([2]; Geraniol, content 16.5% (alone 0.9%)): 0.5% | Head Space Analysis of the Perfume after Adding 50% of DIBA ([2]; Lily Aldehyde, content 27.5% (alone 0.4%)): 0.2% | Head Space Analysis of the Perfume after Adding 50% of DIBA ([2]; Limonene, content 5.5% (alone 53.4%)): 57.5% | Head Space Analysis of the Perfume after Adding 50% of DIBA ([2]; Linalool, content 11.0% (alone 15.0%)): 12.8% | Head Space Analysis of the Perfume after Adding 50% of DIBA ([2]; Linalyl Acetate, content 11.0% (alone 4.1%)): 0.1% | Head Space Analysis of the Perfume after Adding 50% of DIBA ([2]; Nonanal, content 1.1% (alone […])): 2.1% | Head Space Analysis of the Perfume after Adding 50% of DIBA ([2]; Rose P, content 16.5% (alone 5.1%)): 4.4% | APHA color of octanal [3]: about 30 APHA | Analysis of Residue on Paper after Standing 15 Minutes (Area Ratio) ([4]; Citral (not present: 1.5), area of musk ketone taken as 1): 2 | Analysis of Residue on Paper after Standing 15 Minutes (Area Ratio) ([4]; Limonene (not present: 0.3), area of musk ketone taken as 1): 0.6 | Analysis of Residue on Paper after Standing 15 Minutes (Area Ratio) ([4]; Linalool (not present: 6.4), area of musk ketone taken as 1): 9.5 | Analysis of Residue on Paper after Standing 15 Minutes (Area Ratio) ([4]; Linalyl Acetate (not present: 5.1), area of musk ketone taken as 1): 8.5 | Analysis of Residue on Paper after Standing 15 Minutes (Area Ratio) ([4]; Musk Ketone (reference, taken as 1; not present: 1.0)): 1 | Analysis of Residue on Paper after Standing 15 Minutes (Area Ratio) ([4]; Pinene (not present: 0.0), area of musk ketone taken as 1): 0 | LD50 ([5]; acute oral toxicity): 12.3 mL/kg | Acute toxicity compared with conventional perfume controlling agents ([5]; conclusion from Table 1): equal to, or lower than, other conventional perfume controlling agents | pH (Pseudomonas aeruginosa; 0 days elapsed): 6.94 | Number of Living Cells (Pseudomonas aeruginosa; 2 days elapsed): 2.3 × 10^7 | pH (Pseudomonas aeruginosa; 2 days elapsed): 4.72 | OD (turbidity) (Pseudomonas aeruginosa; 2 days elapsed): 0.152 | Number of Living Cells (Pseudomonas aeruginosa; 7 days elapsed): 3 × 10^2 | pH (Pseudomonas aeruginosa; 7 days elapsed): 4.42 | OD (turbidity) (Pseudomonas aeruginosa; 7 days elapsed): 0.13 | Number of Living Cells (Pseudomonas aeruginosa; 14 days elapsed): < 10^2 | pH (Pseudomonas aeruginosa; 14 days elapsed): 4.40 | OD (turbidity) (Pseudomonas aeruginosa; 14 days elapsed): 0.115 | Assimilation by microorganism (Pseudomonas aeruginosa; conclusion from Table 8): assimilated very well
